Blank lines part the entries; values can stand above or below the molecule they belong to. No end group written: not given here. Alexa 488 = Alexa-488 fluorophore (from tetrafluorophenyl ester) on the Lys side-chain amine
Experiments:
MHC II = conditions: cited from earlier work
[1] = target: T1, HLA-DR1 (DR1) (DRA*0101/DRB1*010101) (Homo sapiens, UniProt P01903+P01911, A100R/D57E/F55L/F60I/F76Y/I96L/L162R/M171V/P40L/Q125E/R42F/V115G/Y59C); assay: MHC II stabilization assay; conditions: 1 μM DR1-W1A with 1 μM DM, or 1 μM DM and 50 μM W1A, 37 °C 1 hour, pH 5.5, Superdex200; at least four independent experiments
[2] = Peptide occupancy, quantitative amino acid analysis of acid-eluted material; conditions: control DM sample
[3] = target: T1, HLA-DR1 (DR1) (DRA*0101/DRB1*010101); assay: Numerical modeling; type: binding; conditions: best fit value, Scheme V; DM-MHC resolves into inactive MHC II in the absence of peptides; kept the same for HA and CLIP; 0.4 μM DR1, 0.4 μM DM
[4] = target: DM-MHC II intermediate (complex of HLA-DM with active peptide-free DR1) (human) (UniProt P28067); assay: fluorescence polarisation

Molecule: Ac-GSDARFLRGYHQYA [W1A]
susceptibility to DM-mediated peptide release (MHC II; DR1-bound): extremely susceptible to DM-mediated peptide release
inhibition of aggregation of DR1 loaded with weakly binding peptide W1A [1]: Excess of peptides but not DM could inhibit the aggregation of MHC II

Molecule: DM: soluble extracellular domains of recombinant DM expressed in Drosophila S2 cells
amino acid content of acid-eluted material [2]: 3.46 nmol amino acid per 50 nmol protein

k5 [3]: 0.36 min⁻¹
Molecule: Ac-VSKMRMATPLLMQ [CLIP]
intrinsic and DM-catalyzed dissociation half-life (MHC II; as previously reported): ~ 5 hours

k6 (another combination that gives the same fit) [4]: 47500 M⁻¹ s⁻¹
k6 (peptide binds the intermediate DM-MHC to give DM-MHCpep') [4]: 86800 M⁻¹ s⁻¹
k-6 (peptide leaves DM-MHCpep') [4]: 0.022 min⁻¹
Molecule: Ac-VSK(Alexa 488)MRMATPLLMQ [Alexa488-labeled CLIP peptide (Ac-…)]
